The source made the active and inactive calls. No cut-off for these calls is given here.
Key:
[1] = biological target: T1, Accessory gene regulator protein A (Staphylococcus aureus) (UniProt P0A0I7); experiment: Inhibition of agr-mediated quorum sensing in Staphylococcus aureus at 5 to 10 uM after 5 hrs by luminescence analysis
T1 sequence (whole entry): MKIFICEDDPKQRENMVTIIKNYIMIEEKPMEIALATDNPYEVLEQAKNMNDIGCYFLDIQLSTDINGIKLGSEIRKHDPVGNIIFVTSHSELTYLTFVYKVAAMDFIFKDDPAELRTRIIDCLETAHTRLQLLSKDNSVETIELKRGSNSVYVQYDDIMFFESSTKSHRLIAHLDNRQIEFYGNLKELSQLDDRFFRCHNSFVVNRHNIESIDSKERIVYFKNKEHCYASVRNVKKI

[2] = tested on: Candida albicans; experiment: Antimicrobial activity against Candida albicans at 100 ug/ml; format: functional, organism-based
[3] = tested on: Micrococcus luteus; experiment: Antimicrobial activity against Micrococcus luteus at 100 ug/ml; format: functional, organism-based
[4] = tested on: Escherichia coli; experiment: Antimicrobial activity against Escherichia coli at 100 ug/ml; format: functional, organism-based

Row | Compound | inhibition [1] | Activity [2] | Activity [3] | Activity [4]
1 | CC(C)[C@@H]1NC(=O)C[C@H](/C=C/c2ccccc2)OC(=O)[C@H](C(C)C)NC(=O)[C@H](C(C)C)NC(=O)[C@@H](C)NC1=O | 10% | inactive | inactive | inactive
2 | CC[C@H](C)[C@@H]1NC(=O)[C@@H](C)NC(=O)[C@H](C(C)C)NC(=O)C[C@H](/C=C/c2ccccc2)OC(=O)[C@H](C(C)C)NC1=O | 10% |  |  | 

— ChEMBL document CHEMBL3739353, “Arthroamide, a Cyclic Depsipeptide with Quorum Sensing Inhibitory Activity from Arthrobacter sp” (J Nat Prod, 2015)
